For orientation: IC50 means the concentration that gives 50% inhibition. For orientation: Kd means the free concentration of one partner at which half of the binding sites on the other are occupied at equilibrium, for simple one-to-one binding.

The results in this text go back to patent US20250236596A1, “HYDROXYLAMINE-BASED EGFR INHIBITORS FOR TREATMENT OF CANCER WITH BRAIN METASTASES” (University of Georgia Research Foundation, Inc., priority 2022, published 2025).

A short description of data set [1]: Metabolic stability in liver microsomes. It counts as in vitro ADME. As to conditions: human and rat / multiple species; result in words. The method, then: (§1) Assessment of the compounds metabolic stability in incubations containing liver microsomes and hepatocytes of human and rat using the compound depletion approach was performed by Pharmaron Inc. Compound 15 underwent additional stability evaluation in monkey and dog hepatocytes. Microsome stability was assessed in duplicate (n=2) in the presence and absence of NADPH with liver microsomes (0.5 mg/mL) from human (BD Gentest) and SD rat (BD Gentest). Compounds were incubated in liver microsomes at 1 μM and samples (30 μL) were taken at 0.5, 15, 30, 45 and 60 min time points for analysis by LC-MS/MS. Hepatocyte stability was assessed in duplicate (n=2) at a working cell density of 0.5×10^6 cells/mL with hepatocytes from human (BioIVT), SD rat (BioIVT), cynomolgous monkey (RILD) or beagle dog (BioIVT). Compounds were incubated in hepatocytes at 1 μM and samples (25 μL) were taken at 0.5, 15, 30, 60, 90 and 120 min time points for analysis by LC-MS/MS. The in vitro half-life and intrinsic clearances were determined as previously described.^19
(§2) In vitro half-life (in vitro t1/2) was determined from the slope value in: in vitro t1/2=−(0.693/k).
(§3) Where, k, was determined by linear regression of the natural logarithm of the remaining percentage of the parent drug vs incubation time curve.

A short description of data set [2]: Metabolic stability in hepatocytes. The class given is in vitro ADME. The settings on record: human and rat; result in words. Here is the method: as §1, §2, §3
The subject of data set [3] is A431 cell line (overexpressed EGFR wt). Put plainly: CellTiter-Glo viability assay, A431. It counts as cell-based, human. Here is the method:
(§4) The A431, HCC827, SK-BR-3, ZR-75-30, AU565 and Caco-2 cell lines were obtained from ATCC. The NCI-H1975 cell line was obtained from SIBS. The NCI-H3255 cell line was obtained from CoBioer. Engineered Ba/F3 cell lines were obtained from Crown Bioscience. MCKII-MDR1 cells were obtained from the Netherlands Cancer Institute. HEK293 cells were obtained from Invitrogen. A431 cells were cultured in DMEM (Life Technologies) with 10% FBS. HCC827, NCI-H1975 and AU565 cells were cultured in RPMI1640 (Invitrogen) with 10% FBS. NCI-H3255 cells were cultured in BEGM (Lonza) with 10% FBS. Ba/F3 EGFR-del E746_A750/C797S and Ba/F3 EGFR-L858R/C797S cells were cultured in RPMI (Invitrogen) with 10% FBS. SK-BR-3 cells were cultured in McCoy's 5a (Invitrogen) with 10% FBS. ZR-75-30 cells were cultured in RPMI1640 (Invitrogen) with 20% FBS. BT474 cells were cultured in DMEM (Gibco) with 10% FBS and 10 μg/mL Insulin. Caco-2 and MCKII-MDR1 culture information is given in the permeability studies section. […]
(§5) Viability assays using A431, HCC827, NCI-H1975, NCI-H3255, Ba/F3 EGFR-del E746_A750/C797S, Ba/F3 EGFR-L858R/C797S, AU565, SK-BR-3 and ZR-75-30 cells were performed at Crown BioScience. […] Dose-response curves were generated and used to calculate the IC50 values which were calculated on GraphPad Prism from the non-linear regression equation fitted with a sigmoidal dose response and are presented as the mean±SEM.
For orientation: ATP-based viability assays read luminescence as a measure of living cells.

For data set [4], the system named is NCI-H1975 (EGFR L858R/T790M). In words: CellTiter-Glo viability assay, NCI-H1975. It counts as cell-based, human. The settings on record: 72 h, result in words. The method, then: as §4, §5
In the next data set the target is CYP2D6 (Homo sapiens, UniProt P10635). In words: CYP2D6 time-dependent inhibition IC50-shift. The class given is in vitro ADME. The settings on record: human liver microsomes and primary human hepatocytes; 30 min pre-incubation. Here is the method: Incubations in human hepatocytes were carried out without pre-incubation or with a 30 min pre-incubation at 37° C., 5% CO2. The experiment was carried out at 37° C., 5% CO2 for 5 min.
Chain of CYP2D6 (P10635 whole entry): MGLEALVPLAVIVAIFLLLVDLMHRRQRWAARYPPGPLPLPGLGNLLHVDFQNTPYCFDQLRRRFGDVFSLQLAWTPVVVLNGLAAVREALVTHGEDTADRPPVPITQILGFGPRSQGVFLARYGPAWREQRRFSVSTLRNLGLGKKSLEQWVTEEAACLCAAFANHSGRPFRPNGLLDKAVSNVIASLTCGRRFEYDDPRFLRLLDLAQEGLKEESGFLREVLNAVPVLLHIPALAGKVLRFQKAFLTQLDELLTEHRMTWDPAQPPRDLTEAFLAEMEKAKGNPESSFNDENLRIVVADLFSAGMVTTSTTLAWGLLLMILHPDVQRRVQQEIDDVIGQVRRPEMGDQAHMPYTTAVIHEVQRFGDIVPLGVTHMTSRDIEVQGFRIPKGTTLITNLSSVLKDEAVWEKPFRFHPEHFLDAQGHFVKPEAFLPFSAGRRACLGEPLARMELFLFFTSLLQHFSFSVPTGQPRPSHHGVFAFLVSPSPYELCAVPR
A general note: Microsomes from liver hold many membrane-bound enzymes, among them those of drug oxidation.

For another data set, the target named is T1, HER2 (Homo sapiens, UniProt P04626).
T1 construct: purchased Eurofins DiscoverX (contract assay, KINOMEScan KdELECT)
T1 sequence (P04626 23-1255): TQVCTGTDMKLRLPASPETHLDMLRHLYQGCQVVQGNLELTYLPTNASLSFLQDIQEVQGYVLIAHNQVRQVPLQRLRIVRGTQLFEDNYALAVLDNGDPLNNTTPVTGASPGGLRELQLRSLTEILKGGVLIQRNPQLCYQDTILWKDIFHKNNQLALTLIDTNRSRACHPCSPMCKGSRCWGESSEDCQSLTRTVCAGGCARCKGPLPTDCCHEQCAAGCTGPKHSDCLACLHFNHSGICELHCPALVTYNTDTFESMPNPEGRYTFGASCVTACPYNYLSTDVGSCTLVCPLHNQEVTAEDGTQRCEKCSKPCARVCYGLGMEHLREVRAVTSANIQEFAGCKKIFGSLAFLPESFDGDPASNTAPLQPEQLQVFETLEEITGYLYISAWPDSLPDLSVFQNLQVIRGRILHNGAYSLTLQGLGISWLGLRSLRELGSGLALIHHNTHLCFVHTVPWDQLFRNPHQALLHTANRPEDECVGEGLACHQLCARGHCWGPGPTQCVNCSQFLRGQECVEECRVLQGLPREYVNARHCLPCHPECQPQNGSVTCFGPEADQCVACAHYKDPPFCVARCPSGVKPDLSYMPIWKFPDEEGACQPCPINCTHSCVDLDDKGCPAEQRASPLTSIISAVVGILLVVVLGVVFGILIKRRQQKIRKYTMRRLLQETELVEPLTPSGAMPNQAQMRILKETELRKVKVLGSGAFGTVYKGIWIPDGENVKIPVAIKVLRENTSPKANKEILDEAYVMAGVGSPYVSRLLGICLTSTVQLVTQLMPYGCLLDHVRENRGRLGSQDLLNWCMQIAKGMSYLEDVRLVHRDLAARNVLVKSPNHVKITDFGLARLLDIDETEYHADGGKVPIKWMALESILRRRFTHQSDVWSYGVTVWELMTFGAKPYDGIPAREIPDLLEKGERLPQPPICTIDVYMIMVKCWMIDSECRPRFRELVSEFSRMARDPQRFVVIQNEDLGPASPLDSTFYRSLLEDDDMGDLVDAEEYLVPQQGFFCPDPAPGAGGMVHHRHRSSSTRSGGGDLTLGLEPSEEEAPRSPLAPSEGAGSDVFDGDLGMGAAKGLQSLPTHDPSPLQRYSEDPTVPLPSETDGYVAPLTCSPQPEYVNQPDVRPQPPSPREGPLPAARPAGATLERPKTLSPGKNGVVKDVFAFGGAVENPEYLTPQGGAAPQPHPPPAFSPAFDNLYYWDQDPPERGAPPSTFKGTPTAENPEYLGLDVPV
In words: Follow-up KdELECT binding, HER2. The method, then: In vitro kinase activity (inhibitor binding constants (Kd) and biochemical inhibition (IC50's)) were assessed by Eurofins DiscoverX (Kd determinations) and Eurofins Cerep (biochemical IC50 determinations).

The nature of data set [5]: Pharmacokinetics in SD rats (IV and PO). It counts as in vivo. The settings on record: SD rats at the tested doses. Here is the method: Animal experiments were performed at Pharmaron Inc. and animal use was approved by Pharmaron's Institutional Animal Care and Use Committee (IACUC) in Pharmaron (Pharmaron IACUC, Protocol #PK-M-07182022, #PK-R-06012022 and #ON-CELL-XEN-06012022) following the guidance of AAALAC. Six- to eight-week-old male SD rats (approximately 200-300 g) obtained from Si Bei Fu Laboratory Animal Technology Co., six- to eight-week-old male CD1 mice (approximately 20-30 g) obtained from Si Bei Fu Laboratory Animal Technology Co., and six- to eight-week-old female BALB/c nude mice (approximately 20-30 g) obtained from Si Bei Fu Laboratory Animal Technology Co., were used in the pharmacokinetic studies. Six- to eight-week-old female BALB/c nude mice (approximately 18-22 g) obtained from Beijing Anikeeper Biotech Co., Ltd were used in the intracranial PDX study. […]
Approximately 0.03 mL of blood was collected from the dorsal metatarsal vein (in the case of CD1 mice), 0.03 mL of blood from the orbit vein (in the case of BALB/c nude mice) or 0.2 mL of blood from the jugular vein (in the case of SD rats) at each time point. […] Concentrations of test articles in the plasma samples were determined using LC-MS/MS and WinNonlin 8.3 (Phoenix™) was used for pharmacokinetic calculations. […]

Take `COc1cc2ncnc(Nc3cccc(Cl)c3F)c2cc1OCCON1CCN(C)CC1` [Compound 15, N-(3-chloro-2-fluorophenyl)-7-methoxy-6-(2-((4-methylpiperazin-1-yl)oxy)ethoxy)quinazolin-4-amine]: the “stability in liver microsomes” value in data set [1] was “good stability”. In addition, the stability in hepatocytes entry in data set [2] is recorded as “good stability”. Also, the antiproliferative activity result in data set [3] (A431, 72 h, result in words) is on record as “minimal activity”; in data set [4] it was “no activity”. Further, the IC50 in data set [3] (Homo sapiens, A-431, A431, overexpressed EGFR wt, 72 h, read-out: antiproliferative IC50) amounted to 0.083 µM. The “CYP2D6 time-dependent inhibition (TDI)” value on CYP2D6 is listed as “not to be time dependent”. The compound also registered a Kd at HER2 of 0.021 µM. The “adverse events or signs of toxicity” value in data set [5] is listed as “No adverse events or signs of toxicity”.
